Read-outs that look alike come from different tables or passages of the source.
Columns and labels:
Experiment in all cases: kinase profiling panel
Format in all cases: biochemical
Conditions in all cases: read-out: % Activity Remaining
BRK = BRK (Homo sapiens, UniProt Q13882)
Excerpt: (§1) Protein kinase profiling against a Dundee panel of 140 protein kinases was undertaken at the International Centre for Protein Kinase Profiling. The result for each kinase was presented as a mean kinase activity of the reaction taken in triplicate relative to a control sample treated with DMSO. Assay conditions and abbreviations are available at http://www.kinase-screen.mrc.ac.uk.

DYRK2 = target: T1, DYRK2 (Homo sapiens, UniProt Q92630)
T1 sequence (Q92630 1-601): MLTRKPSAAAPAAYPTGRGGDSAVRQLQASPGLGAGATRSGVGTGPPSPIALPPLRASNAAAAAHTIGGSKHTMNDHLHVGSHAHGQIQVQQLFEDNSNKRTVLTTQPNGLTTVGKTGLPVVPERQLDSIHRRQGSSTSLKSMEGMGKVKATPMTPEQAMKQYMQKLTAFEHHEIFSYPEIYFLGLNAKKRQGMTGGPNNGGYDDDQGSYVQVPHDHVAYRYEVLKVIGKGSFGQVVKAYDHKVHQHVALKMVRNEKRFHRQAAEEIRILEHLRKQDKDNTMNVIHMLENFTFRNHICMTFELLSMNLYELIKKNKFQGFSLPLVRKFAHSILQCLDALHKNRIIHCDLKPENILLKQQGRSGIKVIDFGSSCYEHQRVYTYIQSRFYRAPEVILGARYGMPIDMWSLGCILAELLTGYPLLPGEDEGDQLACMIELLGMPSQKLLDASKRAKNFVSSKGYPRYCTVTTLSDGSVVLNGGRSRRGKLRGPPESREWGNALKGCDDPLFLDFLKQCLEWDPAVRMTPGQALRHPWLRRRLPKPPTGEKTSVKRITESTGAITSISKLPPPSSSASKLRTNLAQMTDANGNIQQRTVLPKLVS
Excerpt: as §1

ERK1 = ERK1 (Homo sapiens, UniProt P27361)
Sequence of ERK1 (P27361 whole entry): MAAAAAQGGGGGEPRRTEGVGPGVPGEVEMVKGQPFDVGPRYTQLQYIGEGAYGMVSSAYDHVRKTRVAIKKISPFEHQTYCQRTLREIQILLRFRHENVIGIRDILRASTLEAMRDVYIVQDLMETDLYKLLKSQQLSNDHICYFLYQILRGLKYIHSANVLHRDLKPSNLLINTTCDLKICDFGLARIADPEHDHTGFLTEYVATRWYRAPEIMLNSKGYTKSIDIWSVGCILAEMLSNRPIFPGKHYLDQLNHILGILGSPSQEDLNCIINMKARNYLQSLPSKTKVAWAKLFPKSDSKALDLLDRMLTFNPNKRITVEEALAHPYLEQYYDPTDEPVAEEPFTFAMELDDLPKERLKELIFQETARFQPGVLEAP
Excerpt: as §1

ERK8 = target: T2, ERK8 (Homo sapiens, UniProt Q8TD08)
T2 sequence (Q8TD08 1-544): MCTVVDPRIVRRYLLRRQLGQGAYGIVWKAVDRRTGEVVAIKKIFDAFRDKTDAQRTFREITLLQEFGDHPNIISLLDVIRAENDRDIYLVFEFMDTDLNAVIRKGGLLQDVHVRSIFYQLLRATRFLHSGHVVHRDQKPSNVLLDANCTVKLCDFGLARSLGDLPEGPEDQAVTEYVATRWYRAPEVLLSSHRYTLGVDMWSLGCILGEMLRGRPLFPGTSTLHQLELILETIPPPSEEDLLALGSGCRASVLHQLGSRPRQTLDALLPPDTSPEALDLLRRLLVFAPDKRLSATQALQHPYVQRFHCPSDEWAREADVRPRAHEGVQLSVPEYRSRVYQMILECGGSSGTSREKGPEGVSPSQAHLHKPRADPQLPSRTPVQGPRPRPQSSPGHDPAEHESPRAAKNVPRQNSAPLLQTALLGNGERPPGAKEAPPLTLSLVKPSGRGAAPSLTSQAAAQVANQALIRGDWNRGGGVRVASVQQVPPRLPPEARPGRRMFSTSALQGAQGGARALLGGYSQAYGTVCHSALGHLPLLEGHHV
Excerpt: as §1

HER4 = HER4 (Homo sapiens, UniProt Q15303)
Sequence of HER4 (Q15303 26-1308): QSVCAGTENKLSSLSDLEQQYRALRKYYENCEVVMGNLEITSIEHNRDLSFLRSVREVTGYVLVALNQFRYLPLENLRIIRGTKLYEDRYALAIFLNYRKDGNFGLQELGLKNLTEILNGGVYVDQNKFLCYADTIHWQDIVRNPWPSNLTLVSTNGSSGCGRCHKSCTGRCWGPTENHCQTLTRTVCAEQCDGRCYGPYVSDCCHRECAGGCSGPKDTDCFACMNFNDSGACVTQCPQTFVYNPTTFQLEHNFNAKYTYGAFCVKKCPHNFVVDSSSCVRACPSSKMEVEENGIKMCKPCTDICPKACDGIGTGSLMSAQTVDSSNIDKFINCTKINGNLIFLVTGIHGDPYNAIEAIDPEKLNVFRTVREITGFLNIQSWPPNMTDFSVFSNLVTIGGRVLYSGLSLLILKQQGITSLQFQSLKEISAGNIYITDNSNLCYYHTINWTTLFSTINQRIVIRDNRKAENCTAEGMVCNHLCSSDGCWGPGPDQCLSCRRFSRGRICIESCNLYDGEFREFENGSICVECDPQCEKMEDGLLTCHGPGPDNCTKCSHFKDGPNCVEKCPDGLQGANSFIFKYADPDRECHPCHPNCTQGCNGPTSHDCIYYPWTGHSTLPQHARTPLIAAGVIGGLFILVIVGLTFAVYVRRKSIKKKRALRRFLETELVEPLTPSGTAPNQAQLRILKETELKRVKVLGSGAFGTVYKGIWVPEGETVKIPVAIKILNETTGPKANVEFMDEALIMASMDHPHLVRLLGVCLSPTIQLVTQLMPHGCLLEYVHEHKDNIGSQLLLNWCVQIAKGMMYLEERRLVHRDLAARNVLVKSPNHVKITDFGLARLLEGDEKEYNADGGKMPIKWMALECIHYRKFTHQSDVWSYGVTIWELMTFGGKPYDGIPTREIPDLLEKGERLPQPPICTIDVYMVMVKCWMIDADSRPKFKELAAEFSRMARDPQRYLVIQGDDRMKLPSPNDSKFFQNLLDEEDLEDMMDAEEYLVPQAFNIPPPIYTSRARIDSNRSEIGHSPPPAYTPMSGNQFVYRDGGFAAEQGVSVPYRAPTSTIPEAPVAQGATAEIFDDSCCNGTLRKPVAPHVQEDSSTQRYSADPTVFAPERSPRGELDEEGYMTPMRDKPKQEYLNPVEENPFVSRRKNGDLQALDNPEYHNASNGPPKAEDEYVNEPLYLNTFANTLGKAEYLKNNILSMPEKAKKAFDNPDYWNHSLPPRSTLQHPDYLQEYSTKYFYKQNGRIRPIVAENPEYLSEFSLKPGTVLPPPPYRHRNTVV
Excerpt: as §1

JNK2 = JNK2 (Homo sapiens, UniProt P45984)
Sequence of JNK2 (P45984 whole entry): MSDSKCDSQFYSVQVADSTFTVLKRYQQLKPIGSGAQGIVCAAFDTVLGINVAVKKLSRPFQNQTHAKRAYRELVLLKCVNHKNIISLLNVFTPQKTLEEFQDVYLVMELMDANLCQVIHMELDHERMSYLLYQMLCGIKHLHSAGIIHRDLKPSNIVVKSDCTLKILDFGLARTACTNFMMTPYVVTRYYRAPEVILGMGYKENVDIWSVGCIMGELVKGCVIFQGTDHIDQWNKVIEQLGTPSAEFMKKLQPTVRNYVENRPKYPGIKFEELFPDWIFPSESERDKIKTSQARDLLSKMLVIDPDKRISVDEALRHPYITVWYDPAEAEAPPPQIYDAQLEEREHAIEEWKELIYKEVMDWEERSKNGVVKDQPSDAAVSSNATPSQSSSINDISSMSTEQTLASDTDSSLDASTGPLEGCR
Excerpt: as §1

MARK3 = MARK3 (Homo sapiens, UniProt P27448)
Sequence of MARK3 (P27448 whole entry): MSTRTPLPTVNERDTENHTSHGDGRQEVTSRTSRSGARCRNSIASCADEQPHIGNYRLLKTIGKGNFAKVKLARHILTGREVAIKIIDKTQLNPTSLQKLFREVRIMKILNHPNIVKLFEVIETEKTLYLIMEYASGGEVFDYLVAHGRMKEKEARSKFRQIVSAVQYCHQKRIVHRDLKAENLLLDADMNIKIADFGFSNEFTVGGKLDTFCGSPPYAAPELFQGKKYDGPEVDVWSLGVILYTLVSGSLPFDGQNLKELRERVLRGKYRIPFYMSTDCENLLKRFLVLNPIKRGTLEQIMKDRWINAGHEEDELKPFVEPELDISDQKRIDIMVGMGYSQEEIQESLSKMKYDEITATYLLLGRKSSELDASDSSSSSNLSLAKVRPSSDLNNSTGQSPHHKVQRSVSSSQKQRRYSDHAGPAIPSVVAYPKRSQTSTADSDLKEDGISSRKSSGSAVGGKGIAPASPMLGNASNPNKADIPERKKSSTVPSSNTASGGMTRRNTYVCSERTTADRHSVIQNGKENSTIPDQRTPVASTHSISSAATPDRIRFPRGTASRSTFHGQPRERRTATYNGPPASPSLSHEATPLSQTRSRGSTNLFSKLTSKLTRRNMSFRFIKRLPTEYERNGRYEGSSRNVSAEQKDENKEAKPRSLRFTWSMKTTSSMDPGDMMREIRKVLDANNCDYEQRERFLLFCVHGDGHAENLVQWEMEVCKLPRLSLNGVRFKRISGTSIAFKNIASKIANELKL
Excerpt: as §1

MPSK1 = MPSK1 (Homo sapiens, UniProt O75716)
Sequence of MPSK1 (O75716 whole entry): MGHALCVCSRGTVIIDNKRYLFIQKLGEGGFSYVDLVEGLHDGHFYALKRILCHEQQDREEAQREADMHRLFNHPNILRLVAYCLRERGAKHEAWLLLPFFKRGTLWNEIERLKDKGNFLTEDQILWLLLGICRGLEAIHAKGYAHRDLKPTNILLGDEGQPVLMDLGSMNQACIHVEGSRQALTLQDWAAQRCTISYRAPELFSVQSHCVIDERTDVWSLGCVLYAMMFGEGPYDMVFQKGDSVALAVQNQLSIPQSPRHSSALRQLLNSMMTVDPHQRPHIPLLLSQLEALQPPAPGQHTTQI
Excerpt: as §1

MST3 = MST3 (Homo sapiens, UniProt Q9Y6E0)
Sequence of MST3 (Q9Y6E0 whole entry): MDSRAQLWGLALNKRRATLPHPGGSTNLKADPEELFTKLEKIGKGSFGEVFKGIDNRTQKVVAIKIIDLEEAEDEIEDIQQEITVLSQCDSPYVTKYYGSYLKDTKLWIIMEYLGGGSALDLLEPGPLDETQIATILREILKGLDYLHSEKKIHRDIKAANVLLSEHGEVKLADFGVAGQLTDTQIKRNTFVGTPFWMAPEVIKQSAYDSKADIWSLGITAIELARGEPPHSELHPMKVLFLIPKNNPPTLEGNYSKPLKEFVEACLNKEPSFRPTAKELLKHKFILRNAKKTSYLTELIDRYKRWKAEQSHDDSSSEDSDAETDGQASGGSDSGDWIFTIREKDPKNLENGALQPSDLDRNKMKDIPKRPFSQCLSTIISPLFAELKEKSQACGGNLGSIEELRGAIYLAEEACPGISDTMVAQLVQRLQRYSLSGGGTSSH
Excerpt: as §1

PKB beta = PKB beta (Homo sapiens, UniProt P31751)
Sequence of PKB beta (P31751 whole entry): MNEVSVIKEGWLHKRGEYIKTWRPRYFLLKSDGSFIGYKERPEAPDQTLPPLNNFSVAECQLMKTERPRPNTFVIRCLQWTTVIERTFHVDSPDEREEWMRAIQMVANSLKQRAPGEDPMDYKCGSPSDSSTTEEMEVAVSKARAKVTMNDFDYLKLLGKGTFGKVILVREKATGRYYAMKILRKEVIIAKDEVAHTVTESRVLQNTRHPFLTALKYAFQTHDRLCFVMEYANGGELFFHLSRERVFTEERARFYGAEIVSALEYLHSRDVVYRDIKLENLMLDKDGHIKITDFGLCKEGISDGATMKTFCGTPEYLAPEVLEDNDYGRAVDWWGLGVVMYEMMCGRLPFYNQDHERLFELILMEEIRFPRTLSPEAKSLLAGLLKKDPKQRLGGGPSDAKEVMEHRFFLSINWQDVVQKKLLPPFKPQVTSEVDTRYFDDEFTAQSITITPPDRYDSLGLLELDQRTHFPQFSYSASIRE
Excerpt: as §1

ULK1 = target: T3, ULK1 (Homo sapiens, UniProt O75385)
T3 sequence (O75385 1-1050): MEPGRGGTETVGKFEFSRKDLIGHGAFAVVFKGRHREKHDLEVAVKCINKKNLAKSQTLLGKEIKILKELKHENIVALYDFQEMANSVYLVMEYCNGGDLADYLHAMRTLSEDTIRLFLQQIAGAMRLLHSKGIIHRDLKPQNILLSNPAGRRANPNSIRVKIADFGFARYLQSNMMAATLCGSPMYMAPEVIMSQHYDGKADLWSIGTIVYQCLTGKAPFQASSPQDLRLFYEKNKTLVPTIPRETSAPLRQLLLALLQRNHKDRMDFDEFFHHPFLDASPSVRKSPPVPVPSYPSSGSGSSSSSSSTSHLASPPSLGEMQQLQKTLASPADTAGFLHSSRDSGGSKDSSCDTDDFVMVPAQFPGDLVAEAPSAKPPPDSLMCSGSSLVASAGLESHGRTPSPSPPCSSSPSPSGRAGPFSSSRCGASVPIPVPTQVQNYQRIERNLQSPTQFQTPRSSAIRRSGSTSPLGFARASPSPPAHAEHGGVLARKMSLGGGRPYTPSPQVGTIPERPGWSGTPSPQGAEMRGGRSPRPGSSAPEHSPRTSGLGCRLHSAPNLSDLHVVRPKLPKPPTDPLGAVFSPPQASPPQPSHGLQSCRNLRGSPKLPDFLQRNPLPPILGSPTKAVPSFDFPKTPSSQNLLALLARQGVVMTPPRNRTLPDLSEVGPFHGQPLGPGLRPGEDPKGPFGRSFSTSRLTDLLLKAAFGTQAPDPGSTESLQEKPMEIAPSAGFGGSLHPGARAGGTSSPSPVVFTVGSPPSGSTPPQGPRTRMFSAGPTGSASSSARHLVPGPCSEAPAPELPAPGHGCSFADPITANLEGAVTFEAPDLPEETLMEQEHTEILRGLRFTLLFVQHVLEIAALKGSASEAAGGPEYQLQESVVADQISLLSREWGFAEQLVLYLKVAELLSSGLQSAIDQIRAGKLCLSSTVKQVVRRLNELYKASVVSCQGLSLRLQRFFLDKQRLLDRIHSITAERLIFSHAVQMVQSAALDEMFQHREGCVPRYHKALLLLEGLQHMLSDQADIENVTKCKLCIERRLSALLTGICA
Excerpt: as §1

Sequence of BRK (Q13882 whole entry): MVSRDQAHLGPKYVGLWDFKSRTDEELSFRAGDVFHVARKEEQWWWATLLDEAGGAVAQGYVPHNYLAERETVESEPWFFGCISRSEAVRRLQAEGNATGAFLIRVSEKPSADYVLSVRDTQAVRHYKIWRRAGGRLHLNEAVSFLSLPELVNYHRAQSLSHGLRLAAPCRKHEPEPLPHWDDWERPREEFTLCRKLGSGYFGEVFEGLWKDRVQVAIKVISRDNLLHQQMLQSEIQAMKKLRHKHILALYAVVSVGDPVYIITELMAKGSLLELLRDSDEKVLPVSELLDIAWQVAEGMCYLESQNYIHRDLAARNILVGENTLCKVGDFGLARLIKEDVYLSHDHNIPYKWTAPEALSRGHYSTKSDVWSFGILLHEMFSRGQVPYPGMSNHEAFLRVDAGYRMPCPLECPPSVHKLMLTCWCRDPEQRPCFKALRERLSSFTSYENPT

Row | Compound | remaining activity at 1 µM (BRK) | remaining activity at 1 µM (DYRK2) | remaining activity at 1 µM (ERK1) | remaining activity at 1 µM (ERK8) | remaining activity at 1 µM (HER4) | remaining activity at 1 µM (JNK2) | remaining activity at 1 µM (MARK3) | remaining activity at 1 µM (MPSK1) | remaining activity at 1 µM (MST3) | remaining activity at 1 µM (PKB beta) | remaining activity at 1 µM (ULK1) | remaining activity at 1 µM (BRK; 1 µM) | remaining activity at 1 µM (DYRK2; 1 µM) | remaining activity at 1 µM (ERK1; 1 µM) | remaining activity at 1 µM (ERK8; 1 µM) | remaining activity at 1 µM (HER4; 1 µM) | remaining activity at 1 µM (JNK2; 1 µM) | remaining activity at 1 µM (MARK3; 1 µM) | remaining activity at 1 µM (MPSK1; 1 µM) | remaining activity at 1 µM (MST3; 1 µM) | other results
1 | COc1ccc(Cl)c(S(=O)(=O)Nc2ccc(-c3nc(OC[C@H]4CNCCO4)c4c(C)n[nH]c4n3)cc2)c1 [290-R, reference compound] | 113% | 100% | 115% | 18% | 102% | 105% | 89% | 82% | 57% | 55% | 78% | – | – | – | – | – | – | – | – | – | –
2 | Cc1ccc(F)c(S(=O)(=O)Nc2ccc(-c3nc(OC[C@H]4CNCCO4)c4cn[nH]c4n3)cc2)c1 [308-R, reference compound] | 86% | 74% | 106% | 49% | 67% | 113% | 103% | 116% | 79% | 35% | 103% | – | – | – | – | – | – | – | – | – | –
3 | Cc1ccc(F)c(S(=O)(=O)Nc2ccc(-c3nc(OC[C@H]4CN(CCCCCCOCCOCCOCC(=O)N[C@H](C(=O)N5C[C@H](O)C[C@H]5C(=O)NCc5ccc(-c6scnc6C)cc5)C(C)(C)C)CCO4)c4cn[nH]c4n3)cc2)c1 [SGK3-PROTAC1] | – | – | – | – | – | – | – | – | – | – | – | 87% | 102% | 103% | 94% | 92% | 117% | 98% | 127% | 102% | remaining activity at 1 µM (PKB beta; 1 µM): 99%; remaining activity at 1 µM (ULK1; 1 µM): 116%
4 | Cc1ccc(F)c(S(=O)(=O)Nc2ccc(-c3nc(OC[C@H]4CN(CCCCCCOCCOCCOCC(=O)N[C@H](C(=O)N5C[C@@H](O)C[C@H]5C(=O)NCc5ccc(-c6scnc6C)cc5)C(C)(C)C)CCO4)c4cn[nH]c4n3)cc2)c1 [cisSGK3-PROTAC1] | – | – | – | – | – | – | – | – | – | – | – | 105% | 97% | 101% | 86% | 103% | 109% | 109% | 139% | 113% | remaining activity at 1 µM (PKB beta; 1 µM): 101%; remaining activity at 1 µM (ULK1; 1 µM): 112%
